Measured values taken from article doi:10.1101/211839v1 (biorxiv, 2017).

Experiments:
[1] = target: T1, HDAC11 (untagged) (Homo sapiens, UniProt Q96DB2); experiment: continuous fluorescence assay, trypsin-coupled, initial rates; format: biochemical; details: […] enzyme, HEPES pH […], no BSA, […] °C
T1 sequence (Q96DB2 1-347): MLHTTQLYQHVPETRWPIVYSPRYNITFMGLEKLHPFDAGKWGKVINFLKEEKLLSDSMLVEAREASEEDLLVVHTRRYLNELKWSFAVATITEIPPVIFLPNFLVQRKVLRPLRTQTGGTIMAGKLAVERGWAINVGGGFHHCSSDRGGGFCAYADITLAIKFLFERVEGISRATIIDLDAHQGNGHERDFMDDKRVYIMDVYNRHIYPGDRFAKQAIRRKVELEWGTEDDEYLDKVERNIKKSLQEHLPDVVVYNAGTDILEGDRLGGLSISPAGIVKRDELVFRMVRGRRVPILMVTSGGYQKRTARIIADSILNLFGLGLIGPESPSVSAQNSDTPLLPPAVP

[2] = target: T1, HDAC11 (untagged); experiment: end-point fluorescence demyristoylase assay, trypsin release of AMC; format: biochemical

Km [1] [µM] | IC50 [2] [µM] | Compound
60 |  | Ac-ETDKmyr-AMC [6e]
 | > 100 | C/C=C1\NC(=O)[C@H]2CSSCC/C=C/[C@H](CC(=O)N[C@H](C(C)C)C(=O)N2)OC(=O)[C@H](C(C)C)NC1=O [romidepsin]
